One may read the inhibition as the drop in the measured response relative to a control, in per cent.

The values that follow come from ChEMBL document CHEMBL4152231, “Identification of novel 2-benzyl-1-indanone analogs as interleukin-5 inhibitors” (Eur J Med Chem, 2018).

In the assay the target is T1, Interleukin-5 (Mus musculus) (UniProt P04401).
T1 sequence (whole entry): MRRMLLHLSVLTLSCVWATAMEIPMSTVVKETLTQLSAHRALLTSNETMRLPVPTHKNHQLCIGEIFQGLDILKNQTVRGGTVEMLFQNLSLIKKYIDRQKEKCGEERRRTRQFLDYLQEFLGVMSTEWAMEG
Nature of the assay: Inhibition of IL-5 in mouse Y16 cells assessed as reduction in cell proliferation at 30 uM after 48 hrs by WST-1 assay relative to control. The assay is classed as cell-based. (In general: Tetrazolium dyes change colour on reduction, which living cells bring about.)
As to `COc1ccc(COc2cccc3c2C(=O)/C(=C/c2ccc(C)cc2)C3)cc1`, the inhibition stood at 17%. For `COc1ccc(/C=C2\Cc3cccc(OCc4ccc(OC)cc4)c3C2=O)cc1` the value was 6%. The figure for `COc1ccc(COc2cccc3c2C(=O)/C(=C/c2ccccc2)C3)cc1` is 5%; for `O=C1c2c(O)cccc2CC1Cc1ccc(O)cc1` (stereo unspecified) it is 30%. The figure for `O=C1c2c(cccc2OCC2CCCCC2)CC1Cc1ccccc1O` (stereo unspecified) is 13%. As to `COCOc1ccc(/C=C2\Cc3cccc(OCC4CCCCC4)c3C2=O)cc1`, the inhibition was determined as 23.5%. The figure for `O=C1/C(=C/c2ccccc2)Cc2cccc(O)c21` is 40%; for `O=C1c2c(cccc2OCC2CCCCC2)CC1Cc1cccc(O)c1` (stereo unspecified) it is 95%.

Turning to `COCOc1ccc(CC2Cc3cccc(OCC4CCCCC4)c3C2=O)cc1` (stereo unspecified), the inhibition amounted to 90%. Take `O=C1/C(=C/c2ccc(O)cc2)Cc2cccc(O)c21`: the inhibition is 35%. For `O=C1c2c(cccc2OCCC2CCCCC2)CC1Cc1ccc(O)cc1` (stereo unspecified) the value was 78%; for `COc1ccc(/C=C2\Cc3cccc(O)c3C2=O)cc1`, 25%; for `O=c1c(Cc2ccc(O)cc2)coc2cccc(OCC3CCCCC3)c12`, 96%. For `O=C1c2c(cccc2OCCc2ccccc2)CC1Cc1ccc(O)cc1` (stereo unspecified) the value was 59%; for `O=C1c2c(cccc2OCC2CCCCC2)CC1Cc1ccc(Cl)cc1` (stereo unspecified), 70%; for `COc1ccc(COc2cccc3c2C(=O)/C(=C/c2ccc(Cl)cc2)C3)cc1`, 29%.

`COc1ccc(COc2cccc3c2C(=O)/C(=C/c2ccc(O)cc2)C3)cc1`: the inhibition was 0%. The figure for `COc1ccc(/C=C2\Cc3cccc(OCC4CCCCC4)c3C2=O)cc1` is 5.6%. The figure for `O=C1c2c(cccc2OCc2ccccc2)CC1Cc1ccc(O)cc1` (stereo unspecified) is 70%; for `O=C1/C(=C/c2ccc(O)cc2)Cc2cccc(OCc3ccc([N+](=O)[O-])cc3)c21` it is 32%; for `Cc1ccc(CC2Cc3cccc(OCC4CCCCC4)c3C2=O)cc1` (stereo unspecified) it is 68%. The figure for `COc1ccc(CC2Cc3cccc(OCC4CCCCC4)c3C2=O)cc1` (stereo unspecified) is 44%. In the case of `O=C1c2c(cccc2OCCc2ccccc2)CC1Cc1ccccc1O` (stereo unspecified), the inhibition was determined as 47%.

`O=C1c2c(cccc2OCCc2ccccc2)CC1Cc1cccc(O)c1` (stereo unspecified): the inhibition stood at 60.5%. For `O=C1/C(=C/c2ccc(O)cc2)Cc2cccc(OCC3CCCCC3)c21`, the inhibition came to 47%. The figure for `O=C1c2c(cccc2OCC2CCCCC2)CC1Cc1ccc(O)cc1` (stereo unspecified) is 100%.
